Broadly, the inhibition is the change of the read-out against control, counted positive when it falls. Lower therefore signals a response near the control. One may read the IC50 as the midpoint of a concentration-inhibition curve. Low values mean greater potency in that assay, high ones weaker potency in that assay.

Structures can show the parent of a compound that is named as a salt.

The source of these data is patent US6703404B2, “Tert -butyl-(7-methyl-imidazol [1,2-a]pyridin-3-yl)-amine derivatives” (Gruenenthal GmbH, priority 1999, dated 2004).

Experiment [1] deals with T1, NO synthase (Rattus norvegicus, UniProt P29476). Nature of the experiment: HTS-NOS assay (labelled arginine, filter plate). To be noted: 10 μm test substance; enzyme from rat cerebellum. Set-up: from tissue; host or cells: rat cerebellum (20,000 g supernatant of homogenate). Type of experiment: biochemical. As to the method: This assay enabled the percentage inhibition of NO synthase to be determined by measuring the NOS activity on the action of the active ingredient. NO synthase was mixed with radioactively labelled arginine and the active ingredient under suitable conditions. After terminating the NO-forming reaction at a predetermined time, the amount of unreacted arginine was determined directly or indirectly. Comparison of this amount with the amount of arginine remaining from a mixture of NOS and arginine without the addition of active ingredient but under conditions which were otherwise the same gave the % inhibition of NO synthase by the active ingredient tested. This assay was performed as follows:
(a) Incubation of NO synthase, with labelled arginine as a substrate, in a reaction vessel.
(b) Separation of the labelled arginine from any labelled citrulline which was formed as a product of the enzymatic reaction at a time at which the concentration of citrulline was increasing.
(c) Measuring the amount of arginine separated in each case.
Separation was effected through a filter plate membrane.
This NOS assay was particularly suitable for “High Throughput Screening” (HTS) on microtitration plates (MTPs).
In this HTS-NOS assay, radioactive arginine was used as the substrate. The assay volume can be selected within the range from […] depending on the type of microtitration plate (MTP). Cofactors and coenzymes were added depending on the enzyme source used. Batches were incubated in this microtitration plate (assay MTP) according to step (a) at room temperature, for between 5 and 60 minutes depending on the enzyme activity (units) employed. At the end of the incubation (step (a)) the plate was placed in a cell harvester which was fitted with an MTP comprising a cation exchange membrane filter base (filter MTP). All the batches from the assay MTP were transferred to this filter MTP and were filtered off under suction through a cation exchange filter plate comprising a paper filter containing phosphate groups. […] By means of this procedure, the remaining arginine substrate was bound to the cation exchanger, whilst the enzymatically formed radioactive citrulline was quantitatively removed by washing. After drying the filter MTP and adding a scintillation liquid, the bound arginine was counted in a scintillation counter. An uninhibited NOS reaction was manifested by a low level of radioactivity. An inhibited enzyme reaction meant that the radioactive arginine had not reacted, i.e. the filter contained a high level of radioactivity. […]
The contents of the assay MTP were subsequently transferred by means of a 96-well cell harvester into a 96-well cation exchanger MTP (filter MTP) and was filitered under suction. […] After a holding time of 1 hour, the plate was measured in a βcounter. […]

In experiment [2] the target is T1, NO synthase. The experiment is described as follows: Citrulline assay (Bredt and Snyder). In kind it is biochemical. The protocol:
This assay was performed as described by D. S. Bredt and S. H. Snyder (Proc. Natl. Acad. Sci. USA (1990), 87, 682-85).

`Cc1cc(C)n2c(NC(C)(C)C)c(C3CCCCC3)nc2c1` [Example 5, tert-butyl-(2-cyclohexyl-5,7-dimethyl-imidazo[1,2-a]pyridin-3-yl)-amine]: the inhibition at 10 µM on NO synthase [1] amounted to 63%.

As to `Cc1cc(C)n2c(NC(C)(C)C)c(-c3ccc([N+](=O)[O-])o3)nc2c1` [Example 9], the “HTS-NOS assay: %-inhibition (10 μm)” value at NO synthase [1] is on record as 59%. With `Cc1ccn2c(NC(C)(C)C)c(-c3ccc(C(=O)O)s3)nc2c1` [Example 17, 5-(3-tert-butylamino-7-methyl-imidazo[1,2-a]pyridin-2-yl)-thiophen-12-carboxylic acid], on NO synthase [1], the “HTS-NOS assay: %-inhibition (10 μm)” value is 61%. The molecule `Cc1cc(C)n2c(NC(C)(C)C)c(-c3ccco3)nc2c1` [Example 18, tert-butyl-(2-furan-2-yl-5,7-dimethyl-imidazo[1,2-a]pyridin-3-yl)amine hydrochloride] displayed an IC50 at NO synthase [2] of 2800 nM. `Cc1ccn2c(NC(C)(C)C)c(-c3ccccc3)nc2c1` [Example 19, tert-butyl-(7-methyl-2-phenylimidazo[1,2-a]pyridin-3-yl)amine hydrochloride] showed an IC50 on NO synthase [2] of 2400 nM. Regarding `Cc1cc(C)n2c(NC(C)(C)C)c(C)nc2c1` [Example 20, tert-butyl-(2,5,7-trimethyl[1,2-a]pyridin-3-yl)amine hydrochloride], the half-maximal inhibitory concentration (IC50) at NO synthase [2] came to 9200 nM.

On to “[5-(3-tert-butyl-7-methyl-imidazo[1,2-a]pyridin-2-yl)-furan-2-yl]-methanol [Example 10]”, for which the “HTS-NOS assay: %-inhibition (10 μm)” value at NO synthase [1] is listed as 52%.
